In patent US20200207734A1, “HETEROCYCLIC COMPOUND AND USE THEREOF” (Takeda Pharmaceutical Company Limited, priority 2017, published 2020):

Columns and labels:
[1] = target: T1, human orexin type 2 receptor (Homo sapiens, UniProt O43614); test: Measurement of orexin type 2 receptor agonist activity (calcium fluorescence, CHO cells expressing hOX2R); type: cell-based; conditions: test compound 3 μM; CHO cells expressing human OX2 receptor; DMSO = 0%, orexin A (human) = 100%
T1 construct: human orexin type 2 receptor cDNA was inserted into pcDNA3.1(+) plasmid vector (Invitrogen); expressed in transfected cells
T1 sequence (O43614 1-444): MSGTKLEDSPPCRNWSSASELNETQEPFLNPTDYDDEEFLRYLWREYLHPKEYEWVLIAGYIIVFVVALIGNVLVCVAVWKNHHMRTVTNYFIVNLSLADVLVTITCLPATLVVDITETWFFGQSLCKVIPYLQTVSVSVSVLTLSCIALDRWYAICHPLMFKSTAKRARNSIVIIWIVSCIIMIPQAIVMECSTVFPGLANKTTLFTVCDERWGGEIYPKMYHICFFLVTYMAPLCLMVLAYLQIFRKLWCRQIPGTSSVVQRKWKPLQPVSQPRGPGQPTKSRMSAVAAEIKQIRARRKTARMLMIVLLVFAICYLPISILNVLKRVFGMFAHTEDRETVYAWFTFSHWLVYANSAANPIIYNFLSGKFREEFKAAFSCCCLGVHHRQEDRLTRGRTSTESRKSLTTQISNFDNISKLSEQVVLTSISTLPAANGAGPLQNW
How it was run: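 CHO-dhfr cells stably expressing hOX2R, loaded with Fluo-4 AM in HBSS/20 mM HEPES/0.1% BSA with probenecid, then given test compound. Calcium fluorescence was read for about 2 min 40 sec. Activity (%) was scaled between DMSO (0%) and 10 nM final human orexin A (100%).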

cynomolgus monkeys = test: Evaluation of wake-promoting effects in cynomolgus monkeys (EEG/EMG/EOG); type: in vivo; conditions: Macaca fascicularis, sc, 4 h; 1 mg/kg, s.c., cynomolgus monkeys, administered at ZT12; read-out: Wakefulness time (% of vehicle treatment) (Mean, n = 1-2)
Method: The wake-promoting effects were evaluated by measuring the electroencephalogram (EEG), electromyogram (EMG) and electrooculogram (EOG) in cynomolgus monkeys. Under isoflurane anesthesia (1-5%, Pfizer Japan Inc., Tokyo, Japan), male cynomolgus monkeys (3-5 years old, Hamri Co., Ltd., Ibaraki, Japan) were surgically implanted with radio-telemetry transmitters (TL10M3-D70-EEE, Data Sciences International Inc., MN, USA). EEG leads were stereotaxically positioned at the parietal area and secured to the cranium with stainless-steel screws in contact with the dura. […] Bilateral EMG leads were implanted into the back cervical muscles. After the surgery, each monkey was given penicillin (100,000 units/head, i.m., Meiji Seika Pharma Co., Ltd., Tokyo, Japan), buprenorphine (0.02 mg/kg, i.m., Otsuka Pharmaceutical Co., Ltd., Tokyo, Japan) and prednisolone (1 mg/kg, s.c., Kyoritsu Seiyaku Co., Ltd., Tokyo, Japan) daily for one week. After at least a 1-month recovery period in home cages, the monkeys were habituated to the recording chamber (an acrylic cage 60W×55D×75H (cm)) located in a soundproof, electrically shielded room. After we confirmed that monkeys slept sufficiently in the experimental room, cortical EEG, EMG and EOG signals were recorded using Dataquest ART software (Data Sciences International Inc., MN, USA). The signals were semi automatically scored in 20 sec epochs by a sleep scoring system (SleepSign, Kissei Comtec Co., Ltd., Nagano, Japan). This preliminary scoring was visually inspected and corrected if necessary. Test compound (10 mg/kg, Table 4-1) suspended in 0.5% methylcellulose aqueous solution, or vehicle (i.e., 0.5% methylcellulose aqueous solution) was administered orally (p.o.) to monkeys at zeitgeber time 12 (ZT12) in a volume of 5 mL/kg body weight in a cross-over design. EEG, EMG and EOG recordings were performed for 4 h after the compound administration/treatments. The time spent in wakefulness for 4 h after administration (% of vehicle treatment) was calculated by using SleepSign. Test compound (1 mg/kg, Table 4-2) dissolved in a mixed solution comprising 5% DMSO, 5% Cremophor EL, 20% PEG400 and 70% soluplus (1% (w/v)), or vehicle (i.e., a mixed solution comprising 5% DMSO, 5% Cremophor EL, 20% PEG400 and 70% soluplus (1% (w/v))) was administered subcutaneously (s.c.) to monkeys at ZT12 in a volume of 0.5 mL/kg body weight in a pre-post design. EEG, EMG and EOG recordings were performed for 4 h after the compound administration/treatments. The time spent in wakefulness for 4 h after administration (% of vehicle treatment) was calculated by using SleepSign.

Structure (SMILES)	OX2R agonist activity (3 μM, %) [1] [%]	response vs control in vivo at 1 mg/kg (cynomolgus monkeys) [%]
CCS(=O)(=O)N[C@H]1CCN(C(=O)N2CCC2)[C@H]1Cc1cccc(-c2cc(F)cc(F)c2)c1 [Example 362, N-((2S,3S)-1-(azetidin-1-ylcarbonyl)-2-((3′,5′-difluorobiphenyl-3-yl)methyl)pyrrolidin-3-yl)ethanesulfonamide]	103	271
CCS(=O)(=O)N[C@H]1CCN(C(=O)N2CCC2)[C@H]1Cc1cccc(-c2ccccc2)c1 [Example 364, N-((2S,3S)-1-(azetidin-1-ylcarbonyl)-2-(biphenyl-3-ylmethyl)pyrrolidin-3-yl)ethanesulfonamide]	104	375
CCS(=O)(=O)N[C@H]1CCN(C(=O)N2CCC2)[C@H]1Cc1cccc(-c2ccccc2)c1F [Example 456, N-{(2S,3S)-1-(azetidine-1-carbonyl)-2-[(2-fluoro[1,1′-biphenyl]-3-yl)methyl]pyrrolidin-3-yl}ethanesulfonamide]	104	446
O=C(N1CCC1)N1CC[C@H](NS(=O)(=O)CF)[C@@H]1Cc1cccc(-c2ccccc2)c1 [Example 460, N-{(2S,3S)-1-(azetidine-1-carbonyl)-2-[([1,1′-biphenyl]-3-yl)methyl]pyrrolidin-3-yl}-1-fluoromethanesulfonamide]	92	
O=C(N1CCC1)N1CC[C@H](NS(=O)(=O)C2CC2)[C@@H]1Cc1cccc(-c2ccccc2)c1 [Example 463, N-{(2S,3S)-1-(azetidine-1-carbonyl)-2-[([1,1′-biphenyl]-3-yl)methyl]pyrrolidin-3-yl}cyclopropanesulfonamide]	105	
CCS(=O)(=O)N[C@H]1CCN(C(=O)C2CCC2)[C@H]1Cc1cccc(-c2ccccc2)c1 [Example 471, N-[(2S,3S)-2-[([1,1′-biphenyl]-3-yl)methyl]-(cyclobutanecarbonyl)pyrrolidin-3-yl]ethanesulfonamide]	116	
CN(C)C(=O)N1CC[C@H](NS(=O)(=O)N(C)C)[C@@H]1Cc1cccc(-c2ccccc2)c1F [Example 475, (2S,3S)-3-[(dimethylsulfamoyl)amino]-2-[(2-fluoro[1,1′-biphenyl]-3-yl)methyl]-N,N-dimethyl-pyrrolidine-1-carboxamide]	104	410
CN(C)C(=O)N1CC[C@H](NS(=O)(=O)N(C)C)[C@@H]1Cc1cccc(-c2cc(F)cc(F)c2)c1F [Example 476, (2S,3S)-3-[(dimethylsulfamoyl)amino]-N,N-dimethyl-2-[(2,3′,5′-trifluoro[1,1′-biphenyl]-3-yl)methyl]pyrrolidine-1-carboxamide]	103	392
CC(C)(O)C(=O)N1CC[C@H](NS(=O)(=O)C2(F)CC2)[C@@H]1Cc1cccc(-c2ccccc2)c1F [Example 479, 1-fluoro-N-[(2S,3S)-2-[(2-fluoro[1,1′-biphenyl]-3-yl)methyl]-1-(2-hydroxy-2-methylpropanoyl)pyrrolidin-3-yl] cyclopropane-1-sulfonamide]	103	
CC(C)(O)C(=O)N1CC[C@H](NS(=O)(=O)C2(F)CC2)[C@@H]1Cc1cccc(-c2cc(F)cc(F)c2)c1F [Example 480, 1-fluoro-N-{(2S,3S)-1-(2-hydroxy-2-methylpropanoyl)-2-[(2,3′,5′-trifluoro[1,1′-biphenyl]-3-yl)methyl]pyrrolidin-3-yl}cyclopropane-1-sulfonamide]	113	
CCS(=O)(=O)N[C@H]1CCN(C(=O)C(C)(C)O)[C@H]1Cc1cccc(-c2cccc(F)c2)c1F [Example 488, N-((2S,3S)-2-((2,3′-difluorobiphenyl-3-yl)methyl)-1-(2-hydroxy-2-methylpro-panoyl)pyrrolidin-3-yl)ethanesulfona-mide]	101	

Now from value to compound, other results behind:

OX2R agonist activity (3 μM, %) [1] [%]	Structure (SMILES)	response vs control in vivo at 1 mg/kg (cynomolgus monkeys) [%]
98	CCS(=O)(=O)N[C@H]1CCN(C(=O)N2CCC2)[C@H]1Cc1cccc(-c2cccc(F)c2)c1F [Example 372, N-((2S,3S)-1-(azetidin-1-ylcarbonyl)-2-((2,3′-difluorobiphenyl-3-yl)methyl)pyrrolidin-3-yl)ethanesulfonamide]	328
103	CN(C)C(=O)N1CC[C@H](NS(=O)(=O)N(C)C)[C@@H]1Cc1cccc(-c2cccc(F)c2)c1F [Example 377, (2S,3S)-2-((2,3′-difluorobiphenyl-3-yl)methyl)-3-((dimethylsulfamoyl)amino)-N,N-dimethylpyrrolidine-1-carboxamide]	343
107	CCS(=O)(=O)N[C@H]1CCN(C(=O)N(C)OC)[C@H]1Cc1cccc(-c2ccccc2)c1 [Example 407, (2S,3S)-2-(biphenyl-3-ylmethyl)-3-((ethylsulfonyl)amino)-N-methoxy-N-methylpyrrolidine-1-carboxamide]	391
103	CC(C)(CO)C(=O)N1CC[C@H](NS(C)(=O)=O)[C@@H]1Cc1cccc(-c2cc(F)cc(F)c2)c1F [Example 457, N-{(2S,3S)-1-(3-hydroxy-2,2-dimethylpropanoyl)-2-[(2,3′,5′-trifluoro[1,1′-biphenyl]-3-yl)methyl]pyrrolidin-3-yl}methanesulfonamide]	
93	O=C(N1CCC1)N1CC[C@H](NS(=O)(=O)CF)[C@@H]1Cc1cccc(-c2cccc(F)c2)c1 [Example 459, N-{(2S,3S)-1-(azetidine-1-carbonyl)-2-[(3′-fluoro[1,1′-biphenyl]-3-yl)methyl]pyrrolidin-3-yl}-1-fluoromethanesulfonamide]	
112	O=C(N1CCC1)N1CC[C@H](NS(=O)(=O)C2CC2)[C@@H]1Cc1cccc(-c2cccc(F)c2)c1 [Example 462, N-{(2S,3S)-1-(azetidine-1-carbonyl)-2-[(3′-fluoro[1,1′-biphenyl]-3-yl)methyl]pyrrolidin-3-yl}cyclopropanesulfonamide]	
108	O=C(N1CCC1)N1CC[C@H](NS(=O)(=O)CF)[C@@H]1Cc1cccc(-c2ccccc2)c1F [Example 466, N-{(2S,3S)-1-(azetidine-1-carbonyl)-2-[(2-fluoro[1,1′-biphenyl]-3-yl)methyl]pyrrolidin-3-yl}-1-fluoromethanesulfonamide]	
101	O=C(N1CCC1)N1CC[C@H](NS(=O)(=O)CF)[C@@H]1Cc1cccc(-c2cccc(F)c2)c1F [Example 467, N-{(2S,3S)-1-(azetidine-1-carbonyl)-2-[(2,3′-difluoro[1,1′-biphenyl]-3-yl)methyl]pyrrolidin-3-yl}-1-fluoro-methanesulfonamide]	
109	CCS(=O)(=O)N[C@H]1CCN(C(=O)N(C)OC)[C@H]1Cc1cccc(-c2cccc(F)c2)c1 [Example 474, (2S,3S)-3-[(ethanesulfonyl)amino]-2-[(3′-fluoro[1,1′-biphenyl]-3-yl)methyl]-N-methoxy-N-methylpyrro-lidine-1-carboxamide]	329
